Assay results from ChEMBL document CHEMBL1145661, “Studies on Aristolochia, I. Conversion of Aristolochic Acid-I to Aristolic Acid-One-Step Removal of a Nitro Group” (1983).

Legend:
Oryctolagus cuniculus [1] = test: Regulation of fertility in rabbit assessed as fetal loss 60 mg/kg; type: functional
Oryctolagus cuniculus [2] = test: Regulation of fertility in rabbit assessed as fetal loss 90 mg/kg; type: functional

## COc1cccc2c1ccc1c(C(=O)O)cc3c(c12)OCO3 [ARISTOLIC ACID]
Oryctolagus cuniculus [1]
  Activity: 80%
Oryctolagus cuniculus [2]
  Activity: 80%
